Results reported in patent US9801901B2, “Alginate oligomers for use in overcoming multidrug resistance in bacteria” (priority 2009, dated 2017).
Values after ≈ are worked out from the molar mass of the structure shown. Read-outs that look alike come from different tables or passages of the source. Marks after values point to notes of the source that are not given here.

Legend:
[1] = system: PA01 Pseudomonas aeruginosa ATCC 15692; assay: MIC assay, two-fold antibiotic dilutions in CAMHB with alginate oligomer, no visible growth; type: cell-based; details: PA01 non MDR
[2] = system: Pseudomonas aeruginosa ATCC 39324, mucoid type strain (R79); assay: MIC assay, CAMHB with alginate oligomer, no visible growth; type: cell-based; details: R79 non MDR (muc.)
[3] = system: Pseudomonas aeruginosa CFA 24-1, clinical mucoid strain (R80); assay: as above; type: cell-based; details: Table 4, R80 non MDR (muc.)
[4] = system: Pseudomonas aeruginosa MDR R22 from China (V1); assay: as above; type: cell-based; details: Table 4, V1 MDR (China)
Excerpt: (§1) The study described in Example 1 was repeated with the following strains of bacteria and antibiotics as detailed in Tables 4, 5 and 6.

V5 AIM-1 E. coli = assay: as above; type: cell-based; details: Table 4, V5 MDR E. coli
Excerpt: as §1

[5] = system: Pseudomonas aeruginosa MDR 301 from Poland (V2); assay: as above; type: cell-based; details: Table 4, V2 MDR (Pol.)
[6] = system: Acinetobacter baumannii MDR ACB from Libya (V4); assay: as above; type: cell-based; details: Table 4, V4 MDR (Libya)
Excerpt: as §1
The study described in Example 1 was repeated with the following strains of Acinetobacter baumannii, antibiotics and M-block alginate oligomer in place of OligoG CF-5/20 as detailed in Table 7. The M-block oligomer is 100% M with a DPn of 15 to 18,

[7] = system: V9 (Egypt) Acinetobacter baumannii; assay: as above; type: cell-based; details: Table 5, V9 MDR Acin. baum
[8] = system: V10 (Egypt) Acinetobacter lwoffii; assay: as above; type: cell-based; details: Table 5, V10 MDR Acin. lwoff
V11 5702 (Wales) E. coli = assay: as above; type: cell-based; details: Table 5, V11 MDR E.coli
[9] = system: V12 5725 (Wales) Klebsiella pneumoniae; assay: as above; type: cell-based; details: Table 5, V12 MDR Kleb pneu
V22 6056 Acinetobacter = assay: as above; type: cell-based, Acinetobacter lwoffii; details: Table 5, V22 MDR Acin. lwoff
[10] = system: V23 1322 Burkholderia cepacia; assay: as above; type: cell-based
[11] = system: Klebsiella pneumoniae KP05 506 from India (V3); assay: as above; type: cell-based; details: Klebsiella pneumoniae, Table 4; V3 MDR (India); OligoCF-5/20 +10% G; read-out: MIC
[12] = Table 5, V23 MDR Burk cep, OligoCF-5/20 +6% G
[13] = Table 5, V23 MDR Burk cep, OligoCF-5/20 +10% G
[14] = Pseudomonas aeruginosa, OligoCF-5/20 0G, read-out: MIC
[15] = Pseudomonas aeruginosa, OligoCF-5/20 +2% G, read-out: MIC
[16] = Pseudomonas aeruginosa, OligoCF-5/20 +10% G, read-out: MIC
[17] = Pseudomonas aeruginosa, OligoCF-5/20 +6% G, read-out: MIC
[18] = Acinetobacter baumannii, OligoCF-5/20 0G, read-out: MIC

Spiramycin
MIC ([1]; Table 4, OligoCF-5/20 0G): >1024^† μg/ml
MIC ([1]; Table 4, OligoCF-5/20 +10% G): 512^† μg/ml
MIC ([2]; Table 4, OligoCF-5/20 0G): >1024^† μg/ml
MIC ([2]; Table 4, OligoCF-5/20 +10% G): 256^† μg/ml
MIC ([3]; OligoCF-5/20 0G): >1024^† μg/ml
MIC ([4]; OligoCF-5/20 0G): >1024^† μg/ml
MIC ([4]; OligoCF-5/20 +10% G): 512^† μg/ml
MIC (V5 AIM-1 E. coli; OligoCF-5/20 0G): 32^† μg/ml
MIC (V5 AIM-1 E. coli; OligoCF-5/20 +2% G): 32 µg/mL
MIC (V5 AIM-1 E. coli; OligoCF-5/20 +6% G): 16^† μg/ml
MIC (V5 AIM-1 E. coli; OligoCF-5/20 +10% G): 8† μg/ml
MIC ([5]; OligoCF-5/20 0G): >1024^† μg/ml
MIC ([6]; OligoCF-5/20 0G): 512^† μg/ml
MIC ([6]; OligoCF-5/20 +2% G): 64^† μg/ml
MIC ([6]; OligoCF-5/20 +6% G): 64^† μg/ml
MIC ([6]; OligoCF-5/20 +10% G): 32^† μg/ml
MIC ([7]; OligoCF-5/20 0G): 256^† μg/ml
MIC ([7]; OligoCF-5/20 +2% G): 64^† μg/ml
MIC ([7]; OligoCF-5/20 +6% G): 32^† μg/ml
MIC ([7]; OligoCF-5/20 +10% G): 16^† μg/ml
MIC ([8]; OligoCF-5/20 0G): <4 µg/mL
MIC ([8]; OligoCF-5/20 +2% G): <4 µg/mL
MIC ([8]; OligoCF-5/20 +6% G): <4 µg/mL
MIC ([8]; OligoCF-5/20 +10% G): <4 µg/mL
MIC (V11 5702 (Wales) E. coli; OligoCF-5/20 0G): 128^† μg/ml
MIC (V11 5702 (Wales) E. coli; OligoCF-5/20 +2% G): 64^† μg/ml
MIC (V11 5702 (Wales) E. coli; OligoCF-5/20 +6% G): 32^† μg/ml
MIC (V11 5702 (Wales) E. coli; OligoCF-5/20 +10% G): 32^† μg/ml
MIC ([9]; OligoCF-5/20 0G): 67^† μg/ml
MIC ([9]; OligoCF-5/20 +2% G): 64 µg/mL
MIC ([9]; OligoCF-5/20 +6% G): 32^† μg/ml
MIC ([9]; OligoCF-5/20 +10% G): 16† μg/ml
MIC (V22 6056 Acinetobacter; OligoCF-5/20 0G): <4 µg/mL
MIC (V22 6056 Acinetobacter; OligoCF-5/20 +2% G): <4 µg/mL
MIC (V22 6056 Acinetobacter; OligoCF-5/20 +6% G): <4 µg/mL
MIC (V22 6056 Acinetobacter; OligoCF-5/20 +10% G): <4 µg/mL
MIC ([10]; Table 5, V23 MDR Burk cep, OligoCF-5/20 0G): >4096^† μg/ml
MIC ([10]; Table 5, V23 MDR Burk cep, OligoCF-5/20 +2% G): 2048^† μg/ml
MIC [10, 12]: 2048^† μg/ml
MIC [10, 13]: 1024^† μg/ml

CC[C@H]1OC(=O)[C@H](C)[C@@H](O[C@H]2C[C@@](C)(OC)[C@@H](O)[C@H](C)O2)[C@H](C)[C@@H](O[C@@H]2O[C@H](C)C[C@H](N(C)C)[C@H]2O)[C@](C)(OC)C[C@@H](C)C(=O)[C@H](C)[C@@H](O)[C@]1(C)O [Clarithromycin]
MIC ([1]; Pseudomonas aeruginosa, ATCC15692, Table 4, OligoCF-5/20 +2% G, read-out: MIC): 128 µg/mL (≈ 171 µM)
MIC ([1]; Pseudomonas aeruginosa, ATCC15692, Table 4, OligoCF-5/20 +6% G, read-out: MIC): 64 µg/mL (≈ 85.6 µM)
MIC ([1]; Pseudomonas aeruginosa, ATCC15692, Table 4, OligoCF-5/20 +10% G, read-out: MIC): 32 µg/mL (≈ 42.8 µM)
MIC ([2]; Pseudomonas aeruginosa, ATCC39324, Table 4, OligoCF-5/20 +2% G, read-out: MIC): 128 µg/mL (≈ 171 µM)
MIC ([2]; Pseudomonas aeruginosa, ATCC39324, Table 4, OligoCF-5/20 +6% G, read-out: MIC): 32 µg/mL (≈ 42.8 µM)
MIC ([2]; Pseudomonas aeruginosa, ATCC39324, Table 4, OligoCF-5/20 +10% G, read-out: MIC): 4 µg/mL (≈ 5.35 µM)
MIC [3, 14]: 1020 µg/mL (≈ 1370 µM)
MIC [3, 15]: 512 µg/mL (≈ 685 µM)
MIC [3, 16]: 64 µg/mL (≈ 85.6 µM)
MIC [4, 15]: 128 µg/mL (≈ 171 µM)
MIC [4, 17]: 64 µg/mL (≈ 85.6 µM)
MIC [4, 16]: 32 µg/mL (≈ 42.8 µM)
MIC (V5 AIM-1 E. coli; Escherichia coli, OligoCF-5/20 0G): 4 µg/mL (≈ 5.35 µM)
MIC (V5 AIM-1 E. coli; Escherichia coli, OligoCF-5/20 +2% G): 4 µg/mL (≈ 5.35 µM)
MIC (V5 AIM-1 E. coli; Escherichia coli, OligoCF-5/20 +6% G): ≤ 1 µg/mL
MIC (V5 AIM-1 E. coli; Escherichia coli, OligoCF-5/20 +10% G): ≤ 1 µg/mL
MIC [5, 14]: 512 µg/mL (≈ 685 µM)
MIC [5, 17]: 128 µg/mL (≈ 171 µM)
MIC [5, 16]: 32 µg/mL (≈ 42.8 µM)
MIC [11]: 128 µg/mL (≈ 171 µM)
MIC [6, 18]: 8 µg/mL (≈ 10.7 µM)
MIC ([6]; Acinetobacter baumannii, OligoCF-5/20 +2% G, read-out: MIC): 4 µg/mL (≈ 5.35 µM)
MIC ([6]; Acinetobacter baumannii, OligoCF-5/20 +6% G, read-out: MIC): ≤ 1 µg/mL
MIC ([6]; Acinetobacter baumannii, OligoCF-5/20 +10% G, read-out: MIC): ≤ 1 µg/mL
MIC [7, 18]: 16 µg/mL (≈ 21.4 µM)
MIC ([7]; OligoCF-5/20 +2% G): 4^† μg/ml
MIC ([7]; OligoCF-5/20 +6% G): 2^† μg/ml
MIC ([7]; OligoCF-5/20 +10% G): 1^† μg/ml
MIC ([8]; Acinetobacter lwoffii, OligoCF-5/20 0G, read-out: MIC): < 0.5 µg/mL
MIC ([8]; OligoCF-5/20 +6% G): <0.5 µg/mL
MIC ([8]; OligoCF-5/20 +10% G): <0.5 µg/mL
MIC (V11 5702 (Wales) E. coli; Escherichia coli, OligoCF-5/20 0G, read-out: MIC): 512 µg/mL (≈ 685 µM)
MIC (V11 5702 (Wales) E. coli; OligoCF-5/20 +2% G): 128^† μg/ml
MIC ([9]; Klebsiella pneumoniae, OligoCF-5/20 0G, read-out: MIC): 512 µg/mL (≈ 685 µM)
MIC ([9]; OligoCF-5/20 +10% G): 512 µg/mL (≈ 685 µM)
MIC ([10]; Burkholderia cepacia, Table 5, V23 MDR Burk cep, OligoCF-5/20 0G, read-out: MIC): 512 µg/mL (≈ 685 µM)
MIC ([10]; Burkholderia cepacia, Table 6, V23, Experiment 2 (18-03-10), OligoCF-5/20 0G, read-out: MIC): 128 µg/mL (≈ 171 µM)
MIC ([10]; Burkholderia cepacia, Table 6, V23, Experiment 3 (19-03-10), OligoCF-5/20 0G, read-out: MIC): 64 µg/mL (≈ 85.6 µM)
MIC [10, 12]: 128^† μg/ml
MIC [10, 13]: 32^† μg/ml
MIC ([10]; Table 6, V23, Experiment 1 (18-03-10), OligoCF-5/20 +6% G): 128^† μg/ml
MIC ([10]; Table 6, V23, Experiment 1 (18-03-10), OligoCF-5/20 +10% G): 128^† μg/ml
MIC ([10]; Table 6, V23, Experiment 2 (18-03-10), OligoCF-5/20 +2% G): 128 µg/mL (≈ 171 µM)
MIC ([10]; Table 6, V23, Experiment 2 (18-03-10), OligoCF-5/20 +6% G): 32^† μg/ml
MIC ([10]; Table 6, V23, Experiment 2 (18-03-10), OligoCF-5/20 +10% G): 16^† μg/ml
MIC ([10]; Table 6, V23, Experiment 3 (19-03-10), OligoCF-5/20 +2% G): 512^‡ μg/ml
MIC ([10]; Table 6, V23, Experiment 3 (19-03-10), OligoCF-5/20 +6% G): 512^‡ μg/ml
MIC ([10]; Table 6, V23, Experiment 3 (19-03-10), OligoCF-5/20 +10% G): 512‡ μg/ml
